Columns and labels:
[1] = target: ligand binding domain of human FXR (Homo sapiens (Human), UniProt Q96RI1); assay: FXR ligand binding assay (LanthaScreen TR-FRET, SRC2-2 peptide recruitment); conditions: for pEC50: -log EC50, concentration required to produce 50% activation; for Emax: extent of activation relative to GW4064, read-out: % Efficacy
Protocol: The affinity of FXR ligands for the ligand binding domain of FXR was determined using a commercially available human FXR ligand binding assay (LanthaScreen, Thermofisher Cat # PV4833). […] Binding of FXR ligands to the FXR ligand binding domain promotes binding of the fluorescein-labelled SRC2-2 peptide. This causes a FRET signal between the terbium-labelled anti-GST antibody and the fluorescein-labelled SRC peptide which are both bound to the FXR ligand binding domain.
Test compounds are dissolved in DMSO and a 3-fold serial dilution series is generated, then further diluted into assay buffer. The compounds are mixed with 5 nM GST-tagged FXR ligand binding domain, 5 nM Tb-labelled anti-GST antibody and 500 nM fluorescein-labelled SRC2-2 peptide in a pH7.4 buffer. The reaction is incubated at room temperature for 1 hour, then the FRET signal is measured as the ratio of the 520 nm/495 nm emission following excitation at 340 nm. The change in FRET signal is plotted against the test article concentration and fit to a 3-parameter logistical equation. The concentration required to produce 50% activation is expressed as pEC50 (−log EC50), and the extent of activation is expressed relative to GW4064 as % activation.

[2] = target: human Farnesoid X receptor ligand-binding domain/Gal4 DNA binding domain chimera (Homo sapiens (Human), UniProt Q96RI1); assay: Cell-based assay of FXR activation (FXR-UAS-bla HEK 293T beta-lactamase reporter); conditions: cellular FXR beta-lactamase reporter assay; for Emax: HEK-293T, extent of activation relative to GW4064, read-out: % Efficacy; for EC50: FXR-UAS-bla HEK 293T cells, 16 h, pEC50 = -log EC50
Protocol: FXR activation was measured using a cell line and procedure obtained from Life Technologies (Cat # K1691). FXR-UAS-bla HEK 293T cells contain a human Farnesoid X receptor ligand-binding domain/Gal4 DNA binding domain chimera stably integrated into the CellSensor® UAS-bla HEK 293T cell line. The CellSensor® UAS-bla HEK 293T contains a beta-lactamase reporter gene under control of a UAS response element stably integrated into HEK 293T cells. Activation of FXR by bound ligands results in transcriptional activation of the beta-lactamase reporter gene, which is detected via assay of beta-lactamase activity.
Cells are harvested and diluted into assay medium containing phenol red-free DMEM supplemented with 2% Charcoal-stripped FBS, pyruvate, non-essential amino acids. Cells are then transferred to a 384 well assay plate. Test compounds are dissolved in DMSO and a 3-fold serial dilution series is generated, then further diluted into assay medium. Compounds in assay medium are added to cells in the 384 well plate and allowed to incubate 16 h at 37 C in the presence of 5% CO2.
A FRET-based […] is loaded into cells as its acetomethoxy ester. Intracellular esterases liberate free CCF4, a cephalosporin core linking 7-hydroxycoumarin to fluorescein. In the presence of beta-lactamase activity produced in the presence of FXR agonists, cleavage of CCF4 spatially separates the two dyes and disrupts FRET, so that exciting the coumarin at 409 nm now produces a blue fluorescence signal at 447 nm. The change in FRET signal is plotted against the test compound concentration and fit to a 3-parameter logistical equation. The concentration required to produce 50% activation is expressed as pEC50 (−log EC50), and the extent of activation is expressed relative to GW4064 as % activation.

ligand binding domain of human FXR, sequence (Q96RI1 262-486): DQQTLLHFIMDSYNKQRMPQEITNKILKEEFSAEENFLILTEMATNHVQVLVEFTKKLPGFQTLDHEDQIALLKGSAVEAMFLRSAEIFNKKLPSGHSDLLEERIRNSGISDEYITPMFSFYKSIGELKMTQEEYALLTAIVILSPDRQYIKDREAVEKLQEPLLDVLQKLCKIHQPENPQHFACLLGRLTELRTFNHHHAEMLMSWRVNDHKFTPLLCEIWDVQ
human Farnesoid X receptor ligand-binding domain/Gal4 DNA binding domain chimera, sequence (Q96RI1 262-486, stated change not applied): as the sequence (Q96RI1 262-486) above
human Farnesoid X receptor ligand-binding domain/Gal4 DNA binding domain chimera, sequence (P04386 1-147 partner): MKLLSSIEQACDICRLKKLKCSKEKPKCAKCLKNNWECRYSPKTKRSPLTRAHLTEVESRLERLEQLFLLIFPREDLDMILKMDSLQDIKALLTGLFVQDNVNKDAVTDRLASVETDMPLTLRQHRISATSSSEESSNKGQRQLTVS

| Compound | pEC50 [1] | Emax [1] [%] | Emax [2] [%] | EC50 [2] [nM] |
| --- | --- | --- | --- | --- |
| O=C(O)c1cc(C(F)(F)F)c2nc(N3C[C@@H]4C[C@H]3C[C@H]4OC(=O)c3c(-c4c(Cl)cccc4Cl)noc3C3CC3)sc2c1 [Compound I-5, 2-[(1S,4S,5R)-5-[5-cyclopropyl-3-(2,6-dichlorophenyl)-1,2-oxazole-4-carbonyloxy]-2-azabicyclo[2.2.1]heptan-2-yl]-4-(trifluoromethyl)-1,3-benzothiazole-6-carboxylic acid] | 7.2 | 139 | 102 | 39.8 |
| O=C(O)c1cc(OC(F)(F)F)c2nc(N3C[C@@H]4C[C@H]3C[C@H]4OC(=O)c3c(-c4c(Cl)cccc4Cl)noc3C3CC3)sc2c1 [Compound I-6] | 7.7 | 173 | 112 | 3.98 |
| O=C(O)c1cc(OCC(F)(F)F)c2nc(N3C[C@@H]4C[C@H]3C[C@H]4OC(=O)c3c(-c4c(Cl)cccc4Cl)noc3C3CC3)sc2c1 [Compound I-7, 2-[(1S,4S,5R)-5-[5-cyclopropyl-3-(2,6-dichlorophenyl)-1,2-oxazole-4-carbonyloxy]-2-azabicyclo[2.2.1]heptan-2-yl]-4-(2,2,2-trifluoroethoxy)-1,3-benzothiazole-6-carboxylic acid] | 7.4 | 162 | 119 | 5.01 |
| CCOc1cc(C(=O)O)cc2sc(N3C[C@@H]4C[C@H]3C[C@H]4OC(=O)c3c(-c4c(Cl)cccc4Cl)noc3C3CC3)nc12 [Compound I-8, 2-[(1S,4S,5R)-5-[5-cyclopropyl-3-(2,6-dichlorophenyl)-1,2-oxazole-4-carbonyloxy]-2-azabicyclo[2.2.1]heptan-2-yl]-4-ethoxy-1,3-benzothiazole-6-carboxylic acid] | 7.6 | 137 | 106 | 2.51 |
| O=C(O)c1cc(OC(F)(F)F)c2nc(N3C[C@@H]4C[C@H]3C[C@H]4OC(=O)c3c(-c4ccccc4C(F)(F)F)noc3C3CC3)sc2c1 [Compound I-9, 2-[(1S,4S,5R)-5-{5-cyclopropyl-3-[2-(trifluoromethyl)phenyl]-1,2-oxazole-4-carbonyloxy}-2-azabicyclo[2.2.1]heptan-2-yl]-4-(trifluoromethoxy)-1,3-benzothiazole-6-carboxylic Acid] | 7.1 | 172 | 107 | 5.01 |
| O=C(O)c1cc(F)c2nc(N3C[C@@H]4C[C@H]3C[C@H]4OC(=O)c3c(-c4c(Cl)cccc4Cl)noc3C3(F)CC3)sc2c1 [Compound I-10, 2-[(1S,4S,5R)-5-[3-(2,6-dichlorophenyl)-5-(1-fluorocyclopropyl)-1,2-oxazole-4-carbonyloxy]-2-azabicyclo[2.2.1]heptan-2-yl]-4-fluoro-1,3-benzothiazole-6-carboxylic Acid] | 7 | 145 | 111 | 25.1 |
| O=C(O)c1cc(F)c2nc(N3C[C@@H]4C[C@H]3C[C@H]4OC(=O)c3c(C45CCC(CC4)CC5)noc3C3CC3)sc2c1 [Compound I-11, 2-[(1S,4S,5R)-5-(3-{bicyclo[2.2.2]octan-1-yl}-5-cyclopropyl-1,2-oxazole-4-carbonyloxy)-2-azabicyclo[2.2.1]heptan-2-yl]-4-fluoro-1,3-benzothiazole-6-carboxylic Acid] | 7.7 | 15 | 28 | 251 |
| O=C(O)c1cc(F)c2nc(N3C[C@@H]4C[C@H]3C[C@H]4OCc3c(-c4c(Cl)cccc4Cl)noc3C3CC3)sc2c1 [Compound I-12, 2-[(1S,4S,5R)-5-{[5-cyclopropyl-3-(2,6-dichlorophenyl)-1,2-oxazol-4-yl]methoxy}-2-azabicyclo[2.2.1]heptan-2-yl]-4-fluoro-1,3-benzothiazole-6-carboxylic Acid] | 9 | 153 | 122 | 0.1 |
| Cc1cc(C(=O)O)cc2sc(N3C[C@@H]4C[C@H]3C[C@H]4OCc3c(-c4c(Cl)cccc4Cl)noc3C3CC3)nc12 [Compound I-13, 2-[(1S,4S,5R)-5-{[5-cyclopropyl-3-(2,6-dichlorophenyl)-1,2-oxazol-4-yl]methoxy}-2-azabicyclo[2.2.1]heptan-2-yl]-4-methyl-1,3-benzothiazole-6-carboxylic acid] | 8.6 | 174 | 116 | 0.158 |
| O=C(O)c1cc(C2CC2)c2nc(N3C[C@@H]4C[C@H]3C[C@H]4OCc3c(-c4c(Cl)cccc4Cl)noc3C3CC3)sc2c1 [Compound I-14, 4-cyclopropyl-2-[(1S,4S,5R)-5-{[5-cyclopropyl-3-(2,6-dichlorophenyl)-1,2-oxazol-4-yl]methoxy}-2-azabicyclo[2.2.1]heptan-2-yl]-1,3-benzothiazole-6-carboxylic acid] | 8.6 | 146 | 111 | 0.1 |
| O=C(O)c1cc(C(F)(F)F)c2nc(N3C[C@@H]4C[C@H]3C[C@H]4OCc3c(-c4c(Cl)cccc4Cl)noc3C3CC3)sc2c1 [Compound I-15, 2-[(1S,4S,5R)-5-{[5-cyclopropyl-3-(2,6-dichlorophenyl)-1,2-oxazol-4-yl]methoxy}-2-azabicyclo[2.2.1]heptan-2-yl]-4-(trifluoromethyl)-1,3-benzothiazole-6-carboxylic acid] | 7.8 | 150 | 104 | 0.251 |
| O=C(O)c1cc(OC(F)(F)F)c2nc(N3C[C@@H]4C[C@H]3C[C@H]4OCc3c(-c4c(Cl)cccc4Cl)noc3C3CC3)sc2c1 [Compound I-16] | 8.8 | 174 | 109 | 0.0398 |
| O=C(O)c1cc(OCC(F)(F)F)c2nc(N3C[C@@H]4C[C@H]3C[C@H]4OCc3c(-c4c(Cl)cccc4Cl)noc3C3CC3)sc2c1 [Compound I-17, 2-[(1S,4S,5R)-5-{[5-cyclopropyl-3-(2,6-dichlorophenyl)-1,2-oxazol-4-yl]methoxy}-2-azabicyclo[2.2.1]heptan-2-yl]-4-(2,2,2-trifluoroethoxy)-1,3-benzothiazole-6-carboxylic acid] | 8.2 | 162 | 102 | 0.1 |
| CCOc1cc(C(=O)O)cc2sc(N3C[C@@H]4C[C@H]3C[C@H]4OCc3c(-c4c(Cl)cccc4Cl)noc3C3CC3)nc12 [Compound I-18, 2-[(1S,4S,5R)-5-{[5-cyclopropyl-3-(2,6-dichlorophenyl)-1,2-oxazol-4-yl]methoxy}-2-azabicyclo[2.2.1]heptan-2-yl]-4-ethoxy-1,3-benzothiazole-6-carboxylic acid] | 8.8 | 135 | 109 | 0.1 |
| O=C(O)c1cc(F)c2nc(N3C[C@@H]4C[C@H]3C[C@H]4OCc3c(-c4ccccc4C(F)(F)F)noc3C3CC3)sc2c1 [Compound I-19, 2-[(1S,4S,5R)-5-([5-cyclopropyl-3-[2-(trifluoromethyl)phenyl]-1,2-oxazol-4-yl]methoxy)-2-azabicyclo[2.2.1]heptan-2-yl]-4-fluoro-1,3-benzothiazole-6-carboxylic Acid] | 8 | 178 | 114 | 2 |
